Experimental data taken from doi:10.1101/2024.04.19.590329, “Quantifying and controlling the proteolytic degradation of cell adhesion peptides” (bioRxiv, 2024).
Non-standard residues stand in square brackets, D forms with d. Residues, ends and D or L forms follow the SMILES beside them. βAla = NCCC(=O)O

Tests used:
[1] = Degradation of individual glycine-terminated peptide at 19.5 to 5,000 μM (cell type not stated); assay type: in vitro ADME; conditions: individual peptide with glycine at the terminus, initial concentration 5,000 μM, LCMS, cell type not stated (Fig. 4A)
Procedure: The column temperature was a constant 29 °C. The Mass Spectrometer was operated in positive ion mode.
Data Analysis was performed on Xcalibur Software (Thermo Scientific). […] Calculated data was visualized using RStudio.

[2] = test system: cells in gels, all cell types; experiment: Viability of cells in gels (alamarBlue); assay type: cell-based, human; conditions: cells in PEG gels, days 0, 3 and 7, across all cell types
Procedure: Cells were cultured in gels as described. A working solution was made by diluting the alamarBlue dye (Y00–100, Thermo Scientific) (1:10) with the same media cells were cultured in. The media the cells were in was replaced with one ml of working solution. One ml of working solution was also placed into 3 blank wells. The cells were then placed in the incubator 36°C, 5% CO2 for 3 hours. After 3 hours, 100 μL of the solution was sampled and placed into a 96 well plate, and fluorescence intensity was measured using a Tecan plate reader using 560Ex/590Em nm filter settings, reading from the bottom of the plate. Immediately after measurement, the alamar blue working solution was washed three times with appropriate media for each cell type being measured and placed back in the incubator. The same cells were used for each measurement during days 0, 3, and 7.

Procedure for hUVECs: Passage 2 of human umbilical vein endothelial cells (hUVECs) (Life Technology) were seeded into 24 well plates at a seeding density of 150,000 cells per well in 1ml of expansion media (Lifeline Cell Technology, LM-0002) containing ascorbic acid, hydrocortisone, FBS, L-Glutamine, rh-EGF, heparin, and EnGS-US (All supplements LifeFactors, LS-1122). After 24 hour the media was changed. Peptide libraries, each containing 19 peptides and the non-proteolytically degradable βFβAβAβAβAβA-NH2 internal standard, were added to the cell media for a final concentration of 37 μM per peptide. Each library was tested in triplicate per per cell type per study. 40 μl samples were collected from the media at hours 0, 1, 4, 8, 24, and 48. In-between timepoints samples were frozen −80°C. […]
Data Analysis was performed on Xcalibur Software (Thermo Scientific). Peptides were identified automatically using the Thermo Xcalibur Processing Setup window where the mass (m/z) ±0.5 AMU and expected retention times for each quantified peptide were inputted. This was later used to isolate individual peptide species from the total ion count (TIC) trace using the Thermo Xcalibur Quan Setup window, where the area under the curve was calculated and visually inspected for accuracy. […] Relative amounts of a peptide of peptide were then calculated by normalized all values to their corresponding time zero area ratio.

Molecule: CC(C)[C@H](NC(=O)[C@H](Cc1ccccc1)NC(=O)[C@H](CCC(=O)O)NC(=O)CNC(=O)[C@H](CCCNC(=N)N)NC(=O)CN)C(=O)NCCC(N)=O [amine-terminated RGEFV peptides] (H-GRGEFV[βAla]-NH2)
- peptide remaining after 48 hours [1]: 5%

Molecule: LIAANK
- degradation in words (hUVECs): rapidly degraded

Molecule: cyclic GRGDSK(N3) (head to tail) [cRGD, Cyclic RGD peptide, positive control, has no terminus, tethered to PEG-DBCO hydrogel by azide]
- viability within gels, in words [2]: greatest viability
